Results from patent EP1015446B1, “(4-PIPERIDINYL)-1H-2-BENZOPYRAN DERIVATIVES USEFUL AS ANTIPSYCHOTIC AGENTS” (Aventis Pharmaceuticals Inc., priority 1997, dated 1998).
Counter-ions that a name gives are not always drawn.

The molecules below were run against T1, cloned human dopamine D2Long receptors (Homo sapiens, UniProt P14416) (assay: biochemical). Details: not given.
T1 construct: expressed in transfected cells; membranes used
Format: binding

T1 sequence (P14416 whole entry): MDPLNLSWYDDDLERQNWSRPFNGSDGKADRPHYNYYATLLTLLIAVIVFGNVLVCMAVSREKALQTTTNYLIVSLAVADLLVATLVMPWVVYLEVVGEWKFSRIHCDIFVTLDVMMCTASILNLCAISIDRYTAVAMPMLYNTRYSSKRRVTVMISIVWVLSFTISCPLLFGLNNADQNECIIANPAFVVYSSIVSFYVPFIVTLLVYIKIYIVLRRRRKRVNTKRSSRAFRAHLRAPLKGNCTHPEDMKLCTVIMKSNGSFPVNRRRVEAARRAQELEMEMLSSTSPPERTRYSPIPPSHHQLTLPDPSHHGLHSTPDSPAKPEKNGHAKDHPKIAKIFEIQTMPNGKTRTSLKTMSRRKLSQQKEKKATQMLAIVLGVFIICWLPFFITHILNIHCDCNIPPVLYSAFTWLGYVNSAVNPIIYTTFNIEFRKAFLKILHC

Row | Molecule | Ki [nM]
1 | O=CNC[C@@H]1O[C@H](C2CCN(CCCC(c3ccc(F)cc3)c3ccc(F)cc3)CC2)Cc2c1ccc1c2OC2(CCCCC2)O1 [Example 28, cis-N-[3-[1-[4,4-Bis-(4-fluorophenyl)butyl]-4-DiDeridinyl]-5,6-(cyclohexylidenedioxy)-3,4-dihydro-1H-2-benzopyran-1-ylmethyl]formamide Oxalate Hemihydrate] | 639

Same assay, conditions: Binding to Human D2Long Receptors; displacement of [3H]N-methyl spiroperidol (0.4 nM), membranes of transfected Chinese Hamster Ovary cells, 37 °C, 30 min; read-out: Ki

Row | Molecule | Ki [nM]
2 | CS(=O)(=O)N1CCC([C@@H]2Cc3c(ccc(O)c3O)[C@H](CN)O2)CC1 (relative stereo) [Example 3D, cis-1-(Aminomethyl)-3,4-dihydro-3-(1-methylsulfonyl-4-piperidinyl)-1H-2-benzopyran-5,6-diol Hydrobromide] | 4200
3 | Br.Br.CC(=O)Oc1ccc2c(c1OC(C)=O)C[C@@H](C1CCN(CCc3ccccc3)CC1)O[C@H]2CN (relative stereo) [Example 4E, cis-1-(Aminomethyl)-5,6-diacetoxy-3,4-dihydro-3-[1-(2-phenylethyl)-4-piperidinyl]-1H-2-benzopyran Dihydrobromide] | 1520
4 | CCN1CCC([C@@H]2Cc3c(ccc(O)c3O)[C@H](CN)O2)CC1 (relative stereo) [Example 8, cis-1-(Aminomethyl)-3,4-dihydro-3-(1-ethyl-4-piperidinyl)-1H-2-benzopyran-5,6-diol Dihydrobromide] | 2510
5 | Br.Br.NC[C@@H]1O[C@H](C2CCN(CCCc3noc4cc(F)ccc34)CC2)Cc2c1ccc(O)c2O (relative stereo) [Example 9, cis-1-(Aminomethyl)-3,4-dihydro-3-[1-[3-(6-fluoro-1,2-benzisoxazol-3-yl)propyl]piperidin-4-yl]-1H-2-benzopyran-5,6-diol Dihydrobromide] | 178
6 | CNC[C@@H]1O[C@H](C2CCN(CCc3ccc(OC)cc3)CC2)Cc2c1ccc(O)c2O (relative stereo) [Example 10, cis-3,4-Dihydro-3-[1-[2-(4-methoxyphenyl)ethyl]-4-piperidinyl]-1-(N-methylaminomethyl)-1H-2-benzopyran-5,6-diol Dihydrochloride] | 2500
7 | NC[C@@H]1O[C@H](C2CCN(CCc3cccs3)CC2)Cc2c1ccc(O)c2O (relative stereo) [Example 25, cis-1-Aminomethyl-3,4-dihydro-3-[1-(2-(thiophen-2-yl)-ethyl-4-piperidinyl]-1H-2-benzopyral-5,6-diol Dihydrochloride Hydrate] | 2100
8 | Cc1ccccc1CCN1CCC([C@@H]2Cc3c(ccc(O)c3O)[C@H](CN)O2)CC1 (relative stereo) [Example 26, cis-1-Aminomethyl-3,4-dihydro-3-[1-[2-(2-methylphenyl)ethyl]-4-piperidinyl]-1H-2-benzopyran-5,6-diol Dihydrochloride] | 684
9 | cis-1-(3-[3-[4-[1-(Aminomethyl)-3,4-dihydro-5,6-dihydroxy-1H-2-benzopyran-3-yl]-1-piperidinyl]propoxy]-3-methoxyphenyl)ethanone Dihydrochloride Dihydrate [Example 31] | 1100
10 | cis-3-[1-[2-(4-Chlorophenyl)ethyl]--4-piperidinyl]-3,4-dihydro-1-(N-methylaminomethyl)-1H-2-benzopyran-5,6-diol dihydrochloride hemihydrate [Example 15] | 413

The molecules below were run on CD-1 male mice (assay: Climbing mouse assay (CMA): antagonism of apomorphine-induced climbing). Details: not given.
Format: in vivo
Procedure: This test may be used as to identify compounds useful in treating psychosis. Costall, B. et al, Eur. J. Pharm. 50: 39-50 (1978); Protais, P., et al., Psychopharmacology 50:1-6 (1976). […] This effect of apomorphine is antagonized by the D2 receptor antagonist.
CD-1 male mice (20-30 grams) are assigned to groups of 8 and individually placed in wire mesh stick cages and allowed one hour for adaptation to new environment. Apomorphine is injected at 1.5 mg/kg subcutaneously which is a dose which causes climbing in all subjects for thirty minutes. Test compounds are administered intraperitoneally thirty minutes prior to the apomorphine administration at a dose of 20 mg/kg.
For evaluation of climbing, three readings are taken at ten, twenty and thirty minutes after apomorphine administration according to the following scale:
The climbing scores are individually totaled (maximal score: 6 per mouse over three readings) and total score of the control (vehicle intraperitoneally (ip) and apomorphine subcutaneous) is set to 100%. ED50 values with 95% confidence limits calculated by a linear regression analysis of some of the compounds of the present invention as well as a standard antipsychotic agent (clozapine) are presented in Table 1.

Row | Molecule | ED50 [mg/kg]
11 | NC[C@@H]1O[C@H](C2CCN(CCc3ccccc3)CC2)Cc2c1ccc(O)c2O (relative stereo) [Example 4D, cis-1-(Aminomethyl)-3,4-dihvdro-3-[1-(2-phenylethyl)-4-piperidinyl]-1H-2-benzopyran-5,6-diol Dihydrobromide Sesquihydrate] | 8.1

Same assay, conditions: ip, thirty minutes prior to apomorphine 1.5 mg/kg subcutaneously, climbing scored at ten, twenty and thirty minutes, linear regression analysis, read-out: ED50

Row | Molecule | ED50 [mg/kg]
12 | Br.Br.CC(=O)Oc1ccc2c(c1OC(C)=O)C[C@@H](C1CCN(CCc3ccccc3)CC1)O[C@H]2CN (relative stereo) [Example 4E, cis-1-(Aminomethyl)-5,6-diacetoxy-3,4-dihydro-3-[1-(2-phenylethyl)-4-piperidinyl]-1H-2-benzopyran Dihydrobromide] | 11.1
13 | Br.Br.CNC[C@@H]1O[C@H](C2CCN(CCc3ccccc3)CC2)Cc2c1ccc(O)c2O (relative stereo) [Example 5, cis-1-(N-Methylaminomethyl)-3,4-dihydro-3-[1-(2-phenylethyl)-4-piperidinyl)-1H-2-benzopyran-5,6-diol Dihydrobromide] | 6.9
14 | Br.Br.NC[C@@H]1O[C@H](C2CCN(CCCc3noc4cc(F)ccc34)CC2)Cc2c1ccc(O)c2O (relative stereo) [Example 9, cis-1-(Aminomethyl)-3,4-dihydro-3-[1-[3-(6-fluoro-1,2-benzisoxazol-3-yl)propyl]piperidin-4-yl]-1H-2-benzopyran-5,6-diol Dihydrobromide] | 16
15 | COc1ccc2c(c1OC)C[C@@H](C1CCN(CCCC(=O)c3ccc(F)cc3)CC1)O[C@H]2CNC=O.Cl (relative stereo) [Example 21, N-[3-[1-[4-(4-Fluorophenyl)-4-oxobutyl]-4-piperidinyl]-3,4-dihydro-5,6-dimethoxy-1H-2-benzopyran-1-ylmethyl]formamide Hydrochloride] | 19.6
16 | CN1CCN(C2=Nc3cc(Cl)ccc3Nc3ccccc32)CC1 [Clozapine, reference compound] | 8.1
